Experimental data reported in patent US8247211B2, “Glycopeptide antibiotics” (American Cyanamid Company, priority 2001, dated 2012).

Columns and labels:
Test in all cases: In vitro antibacterial evaluation: minimum inhibitory concentration (MIC), broth dilution method
Assay type in all cases: cell-based
Escherichia coli = conditions: 18 hours at 35° C.
Procedure, shortened: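 First, organisms are seeded at 5×10^5 CFU/mL into Muller-Hinton II […]. Next, antibiotic is applied across 64-0.06 μg/mL by broth dilution (NCCLS M7-A2). Finally, the lowest inhibitory concentration is recorded as MIC.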

Staphylococcus sp. = conditions: for MIC Staphylococcus aureus (GC 3051): strain GC 3051; for MIC Staphylococcus aureus (GC 3053): strain GC 3053
Procedure, shortened: (§1)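 An MIC is reported for each organism as the least concentration giving inhibition, using broth dilution over 64-0.06 μg/mL with a 5×10^5 CFU/mL inoculum.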

Enterococcus sp. = conditions: 18 hours at 35° C.
Procedure, shortened: as §1

Streptococcus sp. = conditions: 18 hours at 35° C.
Procedure, shortened: as §1

[1] = broth dilution, 5×10^5 CFU/mL, 18 hours at 35° C.
[2] = broth dilution, 18 hours at 35° C.

α-O-[(Dodecylanaino)carbonyl]-cyclo[glycyl-β-methylphenylalanyl-O-(4-O-hexopyranosylhexopyranosyl)tyrosyl-3-(2-iminoimidazolidin-4-yl)seryl-3-(3-hexopyranosyl-2-iminoimidazoliclin-4-yl)serylseryl] [Example 254]
64 µg/mL: MIC Escherichia coli (ATCC 25922) (Escherichia coli; Escherichia coli (ATCC 25922))
2 µg/mL: MIC Coagulase Negative Staphylococcus (GC 4549) (Staphylococcus sp.; Coagulase Negative Staphylococcus (GC 4549), 18 hours at 35° C.) | MIC Coagulase Negative Staphylococcus (ID-3941) (Staphylococcus sp.; Coagulase Negative Staphylococcus (ID-3941), 18 hours at 35° C.) | MIC Coagulase Negative Staphylococcus (GC 4549) (Staphylococcus sp.; broth dilution, 18 hours at 35° C., strain GC 4549) | MIC Coagulase Negative Staphylococcus (ID-3941) (Staphylococcus sp.; broth dilution, 18 hours at 35° C., strain ID-3941) | MIC Enterococcus faecium (GC 4557) (Enterococcus sp.; Enterococcus faecium (GC 4557)) | MIC Enterococcus faecium (GC 4557) (Enterococcus sp.; broth dilution, strain GC 4557)
8 µg/mL: MIC Escherichia coli (GC 4559) (Escherichia coli; Escherichia coli (GC 4559)) | MIC Staphylococcus aureus (GC 4545) (Staphylococcus sp.; Staphylococcus aureus (GC 4545), 18 hours at 35° C.) | MIC Staphylococcus aureus (GC 4545) (Staphylococcus sp.; broth dilution, 18 hours at 35° C., strain GC 4545) | MIC Enterococcus faecalis (ATCC 29212) (Enterococcus sp.; Enterococcus faecalis (ATCC 29212)) | MIC Enterococcus faecalis (GC 2242) (Enterococcus sp.; Enterococcus faecalis (GC 2242)) | MIC Enterococcus faecalis (GC 4552) (Enterococcus sp.; Enterococcus faecalis (GC 4552)) | MIC Enterococcus faecalis (GC 4554) (Enterococcus sp.; Enterococcus faecalis (GC 4554)) | MIC Enterococcus faecium (GC 4556) (Enterococcus sp.; Enterococcus faecium (GC 4556)) | MIC Enterococcus faecalis (ATCC 29212) (Enterococcus sp.; broth dilution, strain ATCC 29212) | MIC Enterococcus faecalis (GC 2242) (Enterococcus sp.; broth dilution, strain GC 2242) | MIC Enterococcus faecalis (GC 4552) (Enterococcus sp.; broth dilution, strain GC 4552) | MIC Enterococcus faecalis (GC 4554) (Enterococcus sp.; broth dilution, strain GC 4554) | MIC Enterococcus faecium (GC 4556) (Enterococcus sp.; broth dilution, strain GC 4556) | MIC Streptococcus pyogenes (ID-3187) (Streptococcus sp.; Streptococcus pyogenes (ID-3187)) | MIC Streptococcus pyogenes (ID-3187) (Streptococcus sp.; broth dilution, strain ID-3187)
16 µg/mL: MIC Streptococcus pneumoniae (GC 4565) (Streptococcus sp.; Streptococcus pneumoniae (GC 4565)) | MIC Streptococcus pneumoniae (GC 4565) (Streptococcus sp.; broth dilution, strain GC 4565)
4 µg/mL: MIC Escherichia coli (GC 4560) (Escherichia coli; Escherichia coli (GC 4560)) | MIC Coagulase Negative Staphylococcus (GC 4547) (Staphylococcus sp.; Coagulase Negative Staphylococcus (GC 4547), 18 hours at 35° C.) | MIC Coagulase Negative Staphylococcus (GC 4548) (Staphylococcus sp.; Coagulase Negative Staphylococcus (GC 4548), 18 hours at 35° C.) | MIC Coagulase Negative Staphylococcus (GC 4551) (Staphylococcus sp.; Coagulase Negative Staphylococcus (GC 4551), 18 hours at 35° C.) | MIC Staphylococcus aureus (ATCC 29213) (Staphylococcus sp.; Staphylococcus aureus (ATCC 29213), 18 hours at 35° C.) | MIC Staphylococcus aureus (GC 1131) (Staphylococcus sp.; Staphylococcus aureus (GC 1131), 18 hours at 35° C.) | MIC Staphylococcus aureus (GC 4541) (Staphylococcus sp.; Staphylococcus aureus (GC 4541), 18 hours at 35° C.) | MIC Staphylococcus aureus (GC 4542) (Staphylococcus sp.; Staphylococcus aureus (GC 4542), 18 hours at 35° C.) | MIC Staphylococcus aureus (GC 4544) (Staphylococcus sp.; Staphylococcus aureus (GC 4544), 18 hours at 35° C.) | MIC Staphylococcus aureus-SMITH (GC 4543) (Staphylococcus sp.; Staphylococcus aureus-SMITH (GC 4543), 18 hours at 35° C.) | MIC Staphylococcus haemolyticus (GC 4546) (Staphylococcus sp.; Staphylococcus haemolyticus (GC 4546), 18 hours at 35° C.) | MIC Staphylococcus aureus (ATCC 29213) (Staphylococcus sp.; broth dilution, 18 hours at 35° C., strain ATCC 29213) | MIC Staphylococcus aureus (GC 1131) (Staphylococcus sp.; broth dilution, 18 hours at 35° C., strain GC 1131) | MIC Staphylococcus aureus (GC 4541) (Staphylococcus sp.; broth dilution, 18 hours at 35° C., strain GC 4541) | MIC Staphylococcus aureus (GC 4542) (Staphylococcus sp.; broth dilution, 18 hours at 35° C., strain GC 4542) | MIC Staphylococcus aureus-SMITH (GC 4543) (Staphylococcus sp.; broth dilution, 18 hours at 35° C., strain GC 4543) | MIC Staphylococcus aureus (GC 4544) (Staphylococcus sp.; broth dilution, 18 hours at 35° C., strain GC 4544) | MIC Staphylococcus haemolyticus (GC 4546) (Staphylococcus sp.; broth dilution, 18 hours at 35° C., strain GC 4546) | MIC Coagulase Negative Staphylococcus (GC 4547) (Staphylococcus sp.; broth dilution, 18 hours at 35° C., strain GC 4547) | MIC Coagulase Negative Staphylococcus (GC 4548) (Staphylococcus sp.; broth dilution, 18 hours at 35° C., strain GC 4548) | MIC Coagulase Negative Staphylococcus (GC 4551) (Staphylococcus sp.; broth dilution, 18 hours at 35° C., strain GC 4551) | MIC Enterococcus avium (GC 4558) (Enterococcus sp.; Enterococcus avium (GC 4558)) | MIC Enterococcus faecalis (GC 4553) (Enterococcus sp.; Enterococcus faecalis (GC 4553)) | MIC Enterococcus faecium (GC 2243) (Enterococcus sp.; Enterococcus faecium (GC 2243)) | MIC Enterococcus faecium (GC 2243) (Enterococcus sp.; broth dilution, strain GC 2243) | MIC Enterococcus faecalis (GC 4553) (Enterococcus sp.; broth dilution, strain GC 4553) | MIC Enterococcus avium (GC 4558) (Enterococcus sp.; broth dilution, strain GC 4558) | MIC Streptococcus agalactiae (GC 4564) (Streptococcus sp.; Streptococcus agalactiae (GC 4564)) | MIC Streptococcus agalactiae (GC 4564) (Streptococcus sp.; broth dilution, strain GC 4564)

CC(c1ccccc1)C1NC(=O)CNC(=O)C(CO)NC(=O)C(C(O)C2CNC(=N)N2C2OC(CO)C(O)C(O)C2O)NC(=O)C(C(O)C2CNC(=N)N2)NC(=O)C(Cc2ccc(OC3OC(CO)C(OC4OC5COC(C67CC8CC(CC(C8)C6)C7)OC5C(O)C4O)C(O)C3O)cc2)NC1=O (centres unmarked) [Example 127]
<0.12 µg/mL: MIC Streptococcus agalactiae (GC 4564) (Streptococcus sp.; broth dilution, 5×10^5 CFU/mL) | MIC Streptococcus pneumoniae (GC 1894) (Streptococcus sp.; broth dilution, 5×10^5 CFU/mL) | MIC Streptococcus pneumoniae (GC 4565) (Streptococcus sp.; broth dilution, 5×10^5 CFU/mL) | MIC Streptococcus pneumonine (ATCC 6301) (Streptococcus sp.; broth dilution, 5×10^5 CFU/mL)
1 µg/mL: MIC Coagulase Negative Staphylococcus (GC 4549) (Staphylococcus sp.; [1]) | MIC Coagulase Negative Staphylococcus (GC 4549) (Staphylococcus sp.; strain GC 4549, broth dilution, 18 hours at 35° C.)
0.25 µg/mL: MIC Streptococcus pyogenes (GC 4563) (Streptococcus sp.; broth dilution, 5×10^5 CFU/mL)
64 µg/mL: MIC Escherichia coli (ATCC 25922) (Escherichia coli; 5×10^5 CFU/mL) | MIC Escherichia coli (GC 4559) (Escherichia coli; 5×10^5 CFU/mL)
4 µg/mL: MIC Escherichia coli (GC 4560) (Escherichia coli; 5×10^5 CFU/mL) | MIC Coagulase Negative Staphylococcus (GC 4547) (Staphylococcus sp.; [1]) | MIC Staphylococcus aureus (GC 1131) (Staphylococcus sp.; strain GC 1131) | MIC Staphylococcus aureus (GC 1131) (Staphylococcus sp.; strain GC 1131, broth dilution, 18 hours at 35° C.) | MIC Staphylococcus aureus (GC 4541) (Staphylococcus sp.; strain GC 4541) | MIC Staphylococcus aureus (GC 4541) (Staphylococcus sp.; strain GC 4541, broth dilution, 18 hours at 35° C.) | MIC Staphylococcus aureus (GC 4544) (Staphylococcus sp.; strain GC 4544) | MIC Staphylococcus aureus (GC 4544) (Staphylococcus sp.; strain GC 4544, broth dilution, 18 hours at 35° C.) | MIC Coagulase Negative Staphylococcus (GC 4547) (Staphylococcus sp.; strain GC 4547, broth dilution, 18 hours at 35° C.) | MIC Enterococccus faecalis (GC 2691) (Enterococcus sp.; broth dilution, 5×10^5 CFU/mL) | MIC Enterococccus faecalis (GC 4552) (Enterococcus sp.; broth dilution, 5×10^5 CFU/mL) | MIC Enterococccus faecalis (GC 4553) (Enterococcus sp.; broth dilution, 5×10^5 CFU/mL) | MIC Enterococccus faecalis (GC 4554) (Enterococcus sp.; broth dilution, 5×10^5 CFU/mL) | MIC Enterococccus faecium (GC 2243) (Enterococcus sp.; broth dilution, 5×10^5 CFU/mL) | MIC Enterococccus faecium (GC 4556) (Enterococcus sp.; broth dilution, 5×10^5 CFU/mL) | MIC Enterococccus faecium (GC 4557) (Enterococcus sp.; broth dilution, 5×10^5 CFU/mL) | MIC Enterococcus faecalis (GC 2242) (Enterococcus sp.; broth dilution, 5×10^5 CFU/mL)
2 µg/mL: MIC Coagulase Negative Staphylococcus (GC 4548) (Staphylococcus sp.; [1]) | MIC Coagulase Negative Staphylococcus (GC 4551) (Staphylococcus sp.; [1]) | MIC Staphylococcus aureus-SMITH (GC 4543) (Staphylococcus sp.; [1]) | MIC Staphylococcus haemolyticus (GC 4546) (Staphylococcus sp.; [1]) | MIC Staphylococcus aureus (ATCC 29213) (Staphylococcus sp.; strain ATCC 29213) | MIC Staphylococcus aureus (ATCC 29213) (Staphylococcus sp.; strain ATCC 29213, broth dilution, 18 hours at 35° C.) | MIC Staphylococcus aureus (GC 3051) (Staphylococcus sp.) | MIC Staphylococcus aureus (GC 3051) (Staphylococcus sp.; [2]) | MIC Staphylococcus aureus (GC 3053) (Staphylococcus sp.) | MIC Staphylococcus aureus (GC 3053) (Staphylococcus sp.; [2]) | MIC Staphylococcus aureus (GC 4542) (Staphylococcus sp.; strain GC 4542) | MIC Staphylococcus aureus (GC 4542) (Staphylococcus sp.; strain GC 4542, broth dilution, 18 hours at 35° C.) | MIC Staphylococcus aureus-SMITH (GC 4543) (Staphylococcus sp.; strain GC 4543, broth dilution, 18 hours at 35° C.) | MIC Staphylococcus aureus (GC 4545) (Staphylococcus sp.; strain GC 4545) | MIC Staphylococcus aureus (GC 4545) (Staphylococcus sp.; strain GC 4545, broth dilution, 18 hours at 35° C.) | MIC Staphylococcus haemolyticus (GC 4546) (Staphylococcus sp.; strain GC 4546, broth dilution, 18 hours at 35° C.) | MIC Coagulase Negative Staphylococcus (GC 4548) (Staphylococcus sp.; strain GC 4548, broth dilution, 18 hours at 35° C.) | MIC Coagulase Negative Staphylococcus (GC 4551) (Staphylococcus sp.; strain GC 4551, broth dilution, 18 hours at 35° C.) | MIC Enterococccus avium (GC 4558) (Enterococcus sp.; broth dilution, 5×10^5 CFU/mL) | MIC Enterococccus faecalis (ATCC 29212) (Enterococcus sp.; broth dilution, 5×10^5 CFU/mL) | MIC Enterococccus faecalis (GC 3059) (Enterococcus sp.; broth dilution, 5×10^5 CFU/mL) | MIC Enterococccus faecalis (GC 6189) (Enterococcus sp.; broth dilution, 5×10^5 CFU/mL)
